Assay results from PubChem BioAssay AID1963422 (Molecular Pharmacology Branch, DTP, NCI, 2024).
Several values for one entry are separate records, joined by “and”; a condition that tells them apart may be missing. Equal entries are not always repeated.

Test system: 463943-066-T-J2-PDC complex spheroid growth
Experiment: Anticancer human tumor 463943-066-T-J2-PDC patient-derived colon adenocarcinoma cell line growth inhibition [Asc]
Settings: for viability, T/C: stronger effect = lower value
Summary of the method: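 Tumor cells were grown as multicellular spheroids with stromal HUVEC and mesenchymal stem cells and treated singly or in combination. Concentrations fell in half-log steps from the clinical Cmax, or from 10 microM where none was known.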

[1] = curve of first compound, second compound 0.0316 µM
[2] = curve of first compound, second compound 0.1 µM
[3] = curve of first compound, second compound 0.316 µM
[4] = curve of first compound, second compound 1 µM
[5] = curve of first compound, second compound 3.16 µM
[6] = curve of first compound, second compound 10 µM
[7] = second compound 0.0316 µM, first compound 0.00316 µM
[8] = second compound 0.0316 µM, first compound 0.01 µM
[9] = second compound 0.0316 µM, first compound 0.0316 µM
[10] = second compound 0.0316 µM, first compound 0.1 µM
[11] = second compound 0.1 µM, first compound 0.00316 µM
[12] = second compound 0.1 µM, first compound 0.01 µM
[13] = second compound 0.1 µM, first compound 0.0316 µM
[14] = second compound 0.1 µM, first compound 0.1 µM
[15] = second compound 0.316 µM, first compound 0.00316 µM
[16] = second compound 0.316 µM, first compound 0.01 µM
[17] = second compound 0.316 µM, first compound 0.0316 µM
[18] = second compound 0.316 µM, first compound 0.1 µM
[19] = second compound 1 µM, first compound 0.00316 µM
[20] = second compound 1 µM, first compound 0.01 µM
[21] = second compound 1 µM, first compound 0.0316 µM
[22] = second compound 1 µM, first compound 0.1 µM
[23] = second compound 3.16 µM, first compound 0.00316 µM
[24] = second compound 3.16 µM, first compound 0.01 µM
[25] = second compound 3.16 µM, first compound 0.0316 µM
[26] = second compound 3.16 µM, first compound 0.1 µM
[27] = second compound 10 µM, first compound 0.00316 µM
[28] = second compound 10 µM, first compound 0.01 µM
[29] = second compound 10 µM, first compound 0.0316 µM
[30] = second compound 10 µM, first compound 0.1 µM
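Also: compound exposure lasted 7 days.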
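For viability, T/C in this document: 100% = DMSO vehicle control wells.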

O=C(c1ccc(F)c(F)c1Nc1ccc(I)cc1F)N1CC(O)([C@@H]2CCCCN2)C1 + Cc1c(S(C)(=O)=O)c(-c2cc(F)cc(N3CCN(c4ccc(NS(=O)(=O)c5ccc(NC(CCN6CCC(C(=O)OCCCP(=O)(O)O)CC6)CSc6ccccc6)c(S(=O)(=O)C(F)(F)F)c5)cc4)CC3)c2)c(-c2ccc(Cl)cc2)n1C(C)C
IC50 [1]: 95.2 nM | IC50 [2]: 111 nM | IC50 [3]: 55.9 nM | IC50 [4]: 26.8 nM | IC50 [5]: 9.46 nM | IC50 [6]: < 3.16 nM | viability, T/C [7]: 92% | viability, T/C [8]: 80.6% | viability, T/C [9]: 61.6% | viability, T/C [10]: 52.2% | viability, T/C (second compound 0.0316 µM, first compound 0.316 µM): 35.1% | viability, T/C (second compound 0.0316 µM, first compound 1 µM): 28.1% | viability, T/C [11]: 88.2% | viability, T/C [12]: 76.3% | viability, T/C [13]: 64.6% | viability, T/C [14]: 50.5% | viability, T/C (second compound 0.1 µM, first compound 0.316 µM): 38.7% | viability, T/C (second compound 0.1 µM, first compound 1 µM): 24.4% | viability, T/C [15]: 85.7% | viability, T/C [16]: 77.8% | viability, T/C [17]: 51.2% | viability, T/C [18]: 45.2% | viability, T/C (second compound 0.316 µM, first compound 0.316 µM): 34.3% | viability, T/C (second compound 0.316 µM, first compound 1 µM): 24.8% | viability, T/C [19]: 73.4% | viability, T/C [20]: 61.6% | viability, T/C [21]: 47.1% | viability, T/C [22]: 36.7% | viability, T/C (second compound 1 µM, first compound 0.316 µM): 29.5% | viability, T/C (second compound 1 µM, first compound 1 µM): 20% | viability, T/C [23]: 55.3% | viability, T/C [24]: 51.8% | viability, T/C [25]: 38.6% | viability, T/C [26]: 33.8% | viability, T/C (second compound 3.16 µM, first compound 0.316 µM): 22.6% | viability, T/C (second compound 3.16 µM, first compound 1 µM): 16.6% | viability, T/C [27]: 43.1% | viability, T/C [28]: 41.1% | viability, T/C [29]: 34% | viability, T/C [30]: 25.9% | viability, T/C (second compound 10 µM, first compound 0.316 µM): 16.7% | viability, T/C (second compound 10 µM, first compound 1 µM): 12.3%

Cn1ncnc1[C@H]1c2n[nH]c(=O)c3cc(F)cc(c23)N[C@@H]1c1ccc(F)cc1 + Cc1c(S(C)(=O)=O)c(-c2cc(F)cc(N3CCN(c4ccc(NS(=O)(=O)c5ccc(NC(CCN6CCC(C(=O)OCCCP(=O)(O)O)CC6)CSc6ccccc6)c(S(=O)(=O)C(F)(F)F)c5)cc4)CC3)c2)c(-c2ccc(Cl)cc2)n1C(C)C
IC50 [1]: > 100 nM | IC50 [2]: > 100 nM | IC50 [3]: > 100 nM | IC50 [4]: > 100 nM | IC50 [5]: > 100 nM | IC50 [6]: < 0.316 nM | viability, T/C (second compound 0.0316 µM, first compound 0.000316 µM): 100% | viability, T/C (second compound 0.0316 µM, first compound 0.001 µM): 91.8% | viability, T/C [7]: 93.6% | viability, T/C [8]: 102% | viability, T/C [9]: 92.2% | viability, T/C [10]: 83% | viability, T/C (second compound 0.1 µM, first compound 0.000316 µM): 93% | viability, T/C (second compound 0.1 µM, first compound 0.001 µM): 94% | viability, T/C [11]: 87.2% | viability, T/C [12]: 91.6% | viability, T/C [13]: 92.3% | viability, T/C [14]: 80.1% | viability, T/C (second compound 0.316 µM, first compound 0.000316 µM): 91.1% | viability, T/C (second compound 0.316 µM, first compound 0.001 µM): 82% | viability, T/C [15]: 84.5% | viability, T/C [16]: 80.2% | viability, T/C [17]: 86.7% | viability, T/C [18]: 83.1% | viability, T/C (second compound 1 µM, first compound 0.000316 µM): 84.9% | viability, T/C (second compound 1 µM, first compound 0.001 µM): 74.4% | viability, T/C [19]: 76.6% | viability, T/C [20]: 79.8% | viability, T/C [21]: 85.2% | viability, T/C [22]: 71.2% | viability, T/C (second compound 3.16 µM, first compound 0.000316 µM): 61.7% | viability, T/C (second compound 3.16 µM, first compound 0.001 µM): 58.1% | viability, T/C [23]: 61% | viability, T/C [24]: 61% | viability, T/C [25]: 68.3% | viability, T/C [26]: 60.8% | viability, T/C (second compound 10 µM, first compound 0.000316 µM): 44.8% | viability, T/C (second compound 10 µM, first compound 0.001 µM): 50.5% | viability, T/C [27]: 47.6% | viability, T/C [28]: 46.8% | viability, T/C [29]: 56.2% | viability, T/C [30]: 45.6%

CCN1CCN(Cc2ccc(Nc3ncc(F)c(-c4cc(F)c5nc(C)n(C(C)C)c5c4)n3)nc2)CC1
viability, T/C (compound 0.00316 µM): 102% and 101% and 107% | viability, T/C (compound 0.01 µM): 99.4% and 93.9% and 78.5% | viability, T/C (compound 0.0316 µM): 100% and 108% and 97.6% | viability, T/C (compound 0.1 µM): 98.9% and 96% and 104% | viability, T/C (compound 0.316 µM): 113% and 108% and 115% | viability, T/C (compound 1 µM): 119% and 120% and 125% | IC50 (curve of compound): > 1000 nM
